The target of the test is T1, Fatty-acid amide hydrolase 1 (Homo sapiens, UniProt O00519).
T1 sequence (O00519 whole entry): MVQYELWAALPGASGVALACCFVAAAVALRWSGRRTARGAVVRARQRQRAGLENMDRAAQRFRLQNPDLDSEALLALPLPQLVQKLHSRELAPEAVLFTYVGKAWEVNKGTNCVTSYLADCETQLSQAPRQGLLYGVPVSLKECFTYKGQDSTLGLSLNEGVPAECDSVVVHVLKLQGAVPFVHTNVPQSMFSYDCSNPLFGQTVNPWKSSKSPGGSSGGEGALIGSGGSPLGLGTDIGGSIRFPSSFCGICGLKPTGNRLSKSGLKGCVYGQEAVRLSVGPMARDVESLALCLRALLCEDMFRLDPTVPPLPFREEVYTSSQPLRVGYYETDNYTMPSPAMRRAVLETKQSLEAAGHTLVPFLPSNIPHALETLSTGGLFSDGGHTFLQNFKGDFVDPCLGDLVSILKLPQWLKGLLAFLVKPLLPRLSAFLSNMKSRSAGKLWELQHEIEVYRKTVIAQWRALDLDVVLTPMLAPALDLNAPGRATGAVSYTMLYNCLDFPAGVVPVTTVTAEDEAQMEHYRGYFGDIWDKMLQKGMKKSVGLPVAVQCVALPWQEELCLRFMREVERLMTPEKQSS
Description: Inhibition Assay. The following applies: pH 8; 22 °C. The method, then: the enzyme activity of recombinant human FAAH was measured according to published procedures with minor modifications by either a fluorescent assay using D-AMC or a radioactive assay using tritium-labeled anandamide (3H-anandamide)51 as substrate.

“And” between values parts separate entries of the source, which are not always exact repeats. Equal values may be shown once.

As a reminder, the IC50 is the concentration that gives 50% inhibition. High values mean lower potency, low ones higher potency. In the case of `COc1cccc2sc(-c3ccc(NC(=O)C4CCN(S(=O)(=O)c5cccs5)CC4)cc3)nc12` [Benzothiazole-based analogue, 1], the IC50 was 2 nM and 2.1 nM and 2.3 nM and 2.5 nM and 5.1 nM and 3.8 nM.
